Laboratory results: ChEMBL document CHEMBL1151391, “New Dihydrochalcones and Flavanones From Uvaria Angolensis” (1982)

What was measured:
Assay type in all cases: functional
[1] = tested on: Mycolicibacterium smegmatis; test: Antimicrobial activity against Mycobacterium smegmatis
Staphylococcus aureus = test: Antimicrobial activity against Staphylococcus aureus
Bacillus subtilis = test: Antimicrobial activity against Bacillus subtilis

| Compound | Activity [1] [µg/mL] | Activity (Staphylococcus aureus) [µg/mL] | Activity (Bacillus subtilis) [µg/mL] |
| --- | --- | --- | --- |
| COc1c(C)c(O)c(C)c(O)c1C(=O)CCc1ccccc1 [ANGOLETIN] | 6.3 | 12.5 | 0.8 |
| COc1c(C)c(O)c(Cc2ccccc2O)c(O)c1C(=O)CCc1ccccc1 [ANGUVETIN] | 1.5 | 1.5 | 0.2 |
